Source: US10294256B2, “Phosphine oxide alkyl amide substituted heteroaryl compounds as modulators of IL-12, IL-23 and/or IFN alpha responses” (BRISTOL-MYERS SQUIBB COMPANY, priority 2016, dated 2019)
pIC50: −log10 of the molar value. Like-named read-outs stand apart in the source and are kept apart here.

Columns and labels:
[1] = system: IFNα stimulated Kit225 T cells with STAT-dependent luciferase reporter; assay: Kit225 T Cell Assay, IFNα stimulated STAT-dependent luciferase reporter; assay type: cell-based, human
Procedure: (§1) Kit225 T cells with a stably-integrated STAT-dependent luciferase reporter were plated in RPMI (Gibco) containing 10% heat-inactivated FBS (Gibco) and 100 U/mL PenStrep (Gibco). The cells were then stimulated with either 20 ng/mL human recombinant IL-23 or 200 U/mL human recombinant IFNα (PBL InterferonSource) for 5-6 hours. Luciferase expression was measured using the STEADY-GLO® Luciferase Assay System (Promega) according to the manufacturer's instructions. Inhibition data were calculated by comparison to no inhibitor control wells for 0% inhibition and non-stimulated control wells for 100% inhibition.

[2] = system: IL-23 stimulated Kit225 T cells with STAT-dependent luciferase reporter; assay: Kit225 T Cell Assay, IL-23 stimulated STAT-dependent luciferase reporter; assay type: cell-based, human
Procedure: as §1

[3] = biological target: recombinant human His-tagged Tyk2 pseudokinase domain (His-TVMV-Tyk2, 575-869) (Homo sapiens, UniProt P29597); assay: Probe Displacement Assay (HTRF Format); details: 0.5 nM Tyk2 pseudokinase domain, 1 h room temperature, read-out: Binding IC50
recombinant human His-tagged Tyk2 pseudokinase domain (His-TVMV-Tyk2, 575-869), sequence (P29597 with tags, fused parts or gaps): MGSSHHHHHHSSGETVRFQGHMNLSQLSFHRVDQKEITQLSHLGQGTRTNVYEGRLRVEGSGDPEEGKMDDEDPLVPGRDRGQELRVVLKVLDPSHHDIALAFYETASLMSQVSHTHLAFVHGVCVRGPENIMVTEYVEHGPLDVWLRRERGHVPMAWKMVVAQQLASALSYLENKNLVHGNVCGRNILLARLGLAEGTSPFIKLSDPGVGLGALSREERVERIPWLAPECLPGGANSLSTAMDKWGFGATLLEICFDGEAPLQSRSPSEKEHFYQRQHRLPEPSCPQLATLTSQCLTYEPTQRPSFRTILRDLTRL
Procedure: To 10 μL 26 nM fluorescein labeled probe plus 0.2 nM anti-6×His-terbium labeled antibody (Medarex, labeled by Cisbio) in assay buffer (20 mM Hepes pH 7.5, 150 mM NaCl, 10 mM MgCl2, 2 mM DTT, 50 μg/mL BSA, and 0.015% Brij 35) was added 10 μL recombinant human His-tagged Tyk2 pseudokinase domain (His-TVMV-Tyk2, 575-869) to a final concentration of 0.5 nM. After 1 h at room temperature, the HTRF signal (ratio of fluorescence intensities at emission wavelengths for fluorescein acceptor at 520 nm and terbium donor at 495 nm) was measured on an Envision Plate Reader. Percent inhibition was calculated by comparison to a control without inhibitor and a control without protein.
Protein Sequence of recombinant His-tagged Tyk2 (575-869): […]

[4] = KIT225, 200 U/mL human recombinant IFNα, 5-6 hours, luciferase reporter, read-out: IFN[…] Kit 225 IC50
[5] = KIT225, 20 ng/mL human recombinant IL-23, 5-6 hours, luciferase reporter, read-out: IL23 Kit 225 IC50

Row | SMILES | pIC50 [1, 4] | pIC50 [2, 5] | pIC50 [3] | pIC50 ([1]; Homo sapiens, KIT225, read-out: IFN[…] Kit 225 IC50) | pIC50 ([2]; Homo sapiens, KIT225, read-out: IL23 Kit 225 IC50)
1 | [2H]C([2H])([2H])NC(=O)c1nnc(NC(=O)C2CC23CC3)cc1Nc1ncccc1P(C)(C)=O (stereo not drawn) [Example 33] | 5.83 | 5.43 | 8.54 |  | 
2 | [2H]C([2H])([2H])NC(=O)c1nnc(NC(=O)C2CC2(C)C)cc1Nc1ncccc1P(C)(C)=O (stereo not drawn) [Example 28] | 5.20 | 5.20 | 7.77 |  | 
3 | [2H]C([2H])([2H])NC(=O)c1nnc(Nc2ccc(C(C)(C)O)c(F)n2)cc1Nc1ncccc1P(C)(C)=O [Example 34] | 6.46 | 5.87 | 9.07 |  | 
4 | [2H]C([2H])([2H])NC(=O)c1nnc(Nc2ccc(C3CC3)cn2)cc1Nc1ccccc1P(C)(C)=O [Example 5] | 6.47 | 6.41 | 8.28 |  | 
5 | [2H]C([2H])([2H])NC(=O)c1nnc(Nc2cc(C3CC3)ccn2)cc1Nc1ccccc1P(C)(C)=O [Example 1] | 6.62 | 6.42 | 8.47 |  | 
6 | [2H]C([2H])([2H])NC(=O)c1nnc(Nc2ccc(OC(F)(F)F)cn2)cc1Nc1ncccc1P(C)(C)=O [Example 13] | 7.66 | 7.36 | 9.37 |  | 
7 | [2H]C([2H])([2H])NC(=O)c1nnc(Nc2ccn(C)n2)cc1Nc1ccccc1P(C)(C)=O [Example 8] | 5.75 | 5.43 | 7.92 |  | 
8 | [2H]C([2H])([2H])NC(=O)c1nnc(Nc2ccc(N3CCOCC3)cn2)cc1Nc1ccccc1P(C)(C)=O [Example 7] | 6.10 | 5.84 | 7.89 |  | 
9 | [2H]C([2H])([2H])NC(=O)c1nnc(Nc2ccc(OC)nn2)cc1Nc1ccccc1P(C)(C)=O [Example 4] | 5.04 | 5.59 | 8.00 |  | 
10 | [2H]C([2H])([2H])NC(=O)c1nnc(Nc2cc(C)nc(C)n2)cc1Nc1ccccc1P(C)(C)=O [Example 3] | 5.81 | 5.46 | 8.80 |  | 
11 | [2H]C([2H])([2H])NC(=O)c1nnc(NC(=O)C2CC2)cc1Nc1ccccc1P(C)(C)=O [Example 2] | 5.50 | 5.74 | 8.13 |  | 
12 | [2H]C([2H])([2H])NC(=O)c1nnc(Nc2ccc(N3CCOCC3)cn2)cc1Nc1ncccc1P(C)(C)=O [Example 42] | 6.58 | 6.53 | 9.21 |  | 
13 | [2H]C([2H])([2H])NC(=O)c1nnc(Nc2ccc(C(C)(C)O)cn2)cc1Nc1ccccc1P(C)(C)=O [Example 6] | 6.37 | 5.51 | 8.66 |  | 
14 | [2H]C([2H])([2H])NC(=O)c1nnc(NC(=O)[C@H]2CC2(C)C)cc1Nc1ncccc1P(C)(C)=O [Example 27] | 5.34 | 4.90 | 7.89 |  | 
15 | [2H]C([2H])([2H])NC(=O)c1nnc(Nc2cccc(F)n2)cc1Nc1ncccc1P(C)(C)=O [Example 22] |  |  | 10.43 | 7.82 | 7.40
16 | [2H]C([2H])([2H])NC(=O)c1nnc(Nc2ccc(C(O)(C(F)(F)F)C(F)(F)F)cn2)cc1Nc1ncccc1P(C)(C)=O [Example 41] | 6.69 | 6.49 | 9.04 |  | 
17 | [2H]C([2H])([2H])NC(=O)c1nnc(NC(=O)OCC)cc1Nc1ncccc1P(C)(C)=O [Example 19] | 5.38 | 6.09 | 8.01 |  | 
18 | [2H]C([2H])([2H])NC(=O)c1nnc(NC(=O)C2CC2)cc1Nc1ncccc1P(C)(C)=O [Example 9] | 6.29 | 6.55 | 8.85 |  | 

More lines, main results first:

Row | pIC50 [1, 4] | pIC50 [2, 5] | pIC50 [3] | SMILES | pIC50 ([1]; Homo sapiens, KIT225, read-out: IFN[…] Kit 225 IC50) | pIC50 ([2]; Homo sapiens, KIT225, read-out: IL23 Kit 225 IC50)
19 | 7.30 | 7.72 | 9.21 | [2H]C([2H])([2H])NC(=O)c1nnc(Nc2cc(C)ccn2)cc1Nc1ncccc1P(C)(C)=O [Example 21] |  | 
20 | 6.90 | 6.67 | 9.10 | [2H]C([2H])([2H])NC(=O)c1nnc(Nc2ccccn2)cc1Nc1ncccc1P(C)(C)=O [Example 14] |  | 
21 | 7.48 | 7.08 | 9.01 | [2H]C([2H])([2H])NC(=O)c1nnc(Nc2cccc(OC)n2)cc1Nc1ncccc1P(C)(C)=O [Example 24] |  | 
22 | 6.17 | 5.92 | 9.54 | [2H]C([2H])([2H])NC(=O)c1nnc(Nc2ccc(C(C)(C)O)cn2)cc1Nc1ncccc1P(C)(C)=O [Example 16] |  | 
23 | 7.48 | 7.24 | 9.36 | [2H]C([2H])([2H])NC(=O)c1nnc(Nc2cccc(C)n2)cc1Nc1ncccc1P(C)(C)=O [Example 18] |  | 
24 | 6.04 | 6.03 | 9.28 | [2H]C([2H])([2H])NC(=O)c1nnc(Nc2cc(Cl)c(C(C)(C)O)cn2)cc1Nc1ncccc1P(C)(C)=O [Example 36] |  | 
25 | 6.86 | 6.59 | 9.34 | [2H]C([2H])([2H])NC(=O)c1nnc(Nc2cccc(C(F)(F)F)n2)cc1Nc1ncccc1P(C)(C)=O [Example 40] |  | 
26 | 5.64 | 5.75 | 8.92 | [2H]C([2H])([2H])NC(=O)c1nnc(Nc2ccc(C(C)(C)N)cn2)cc1Nc1ncccc1P(C)(C)=O [Example 35] |  | 
27 | 7.64 | 7.21 | 9.27 | [2H]C([2H])([2H])NC(=O)c1nnc(Nc2ccc(C)c(C)n2)cc1Nc1ncccc1P(C)(C)=O [Example 29] |  | 
28 | 6.18 | 5.94 | 8.70 | [2H]C([2H])([2H])NC(=O)c1nnc(Nc2ccn(C)n2)cc1Nc1ncccc1P(C)(C)=O [Example 23] |  | 
29 | 6.84 | 7.04 | 9.13 | [2H]C([2H])([2H])NC(=O)c1nnc(Nc2cc(C3CC3)ccn2)cc1Nc1ncccc1P(C)(C)=O [Example 12] |  | 
30 | 6.66 | 7.23 | 9.47 | [2H]C([2H])([2H])NC(=O)c1nnc(Nc2ccc(C(F)(F)F)cn2)cc1Nc1ncccc1P(C)(C)=O [Example 39] |  | 
31 | 7.49 | 6.92 | 9.25 | [2H]C([2H])([2H])NC(=O)c1nnc(Nc2ccc(C)cn2)cc1Nc1ncccc1P(C)(C)=O [Example 30] |  | 
32 | 7.13 | 7.28 | 9.42 | [2H]C([2H])([2H])NC(=O)c1nnc(Nc2ccc(Cl)cn2)cc1Nc1ncccc1P(C)(C)=O [Example 37] |  | 
33 | 7.05 | 6.88 | 9.24 | [2H]C([2H])([2H])NC(=O)c1nnc(Nc2cc(F)ccn2)cc1Nc1ncccc1P(C)(C)=O [Example 25] |  | 
34 | 7.37 | 7.24 | 9.57 | [2H]C([2H])([2H])NC(=O)c1nnc(Nc2ccc(C3CC3)cn2)cc1Nc1ncccc1P(C)(C)=O [Example 17] |  | 
35 | 7.27 | 7.34 | 9.27 | [2H]C([2H])([2H])NC(=O)c1nnc(Nc2ccc(F)c(C)n2)cc1Nc1ncccc1P(C)(C)=O [Example 31] |  | 
36 | 7.32 | 6.94 | 9.27 | [2H]C([2H])([2H])NC(=O)c1nnc(Nc2ccc(F)cn2)cc1Nc1ncccc1P(C)(C)=O [Example 15] |  | 
37 | 7.30 | 7.17 | 9.24 | [2H]C([2H])([2H])NC(=O)c1nnc(Nc2cc(COC)ccn2)cc1Nc1ncccc1P(C)(C)=O [Example 20] |  | 
